Bounds are passed on as bounds.

For the assay, the target named is T1, GCase (Homo sapiens, UniProt P04062).
T1 construct: endogenous in cells; host or cells: HeLa cells
T1 sequence (P04062 40-536): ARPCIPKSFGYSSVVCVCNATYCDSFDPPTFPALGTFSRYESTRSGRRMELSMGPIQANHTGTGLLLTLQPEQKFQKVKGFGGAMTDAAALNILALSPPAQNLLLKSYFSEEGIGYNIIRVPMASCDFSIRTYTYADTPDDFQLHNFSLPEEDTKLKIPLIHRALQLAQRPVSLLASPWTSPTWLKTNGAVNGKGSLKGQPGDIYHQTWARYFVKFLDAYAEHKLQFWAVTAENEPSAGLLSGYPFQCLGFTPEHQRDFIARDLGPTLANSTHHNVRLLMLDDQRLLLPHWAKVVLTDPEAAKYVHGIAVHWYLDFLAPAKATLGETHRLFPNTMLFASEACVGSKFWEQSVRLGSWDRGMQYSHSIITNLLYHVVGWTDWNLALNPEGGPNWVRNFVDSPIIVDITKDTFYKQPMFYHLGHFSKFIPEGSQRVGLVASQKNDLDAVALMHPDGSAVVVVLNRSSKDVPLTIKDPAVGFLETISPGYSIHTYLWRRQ
Kind of assay: activation of GCase in a live cell PFB assay in HELA cells. The assay is classed as cell-based.
As for `FC(F)Cn1ncc2ncc(N3CCC(COc4ccncc4C(F)(F)F)CC3)nc21` [Compound 308, 1-(2,2-Difluoroethyl)-6-(4-(((3-(trifluoromethyl)pyridin-4-yl)oxy)methyl)piperidin-1-yl)-1H-pyrazolo[3,4-b]pyrazine], the EC50 (commonly the midpoint of the concentration-response curve) is less than 10 µM. As for `FC(F)Cn1ncc2ncc(N3CCC(Oc4cccc(C(F)(F)F)n4)CC3)nc21` [Compound 309, 1-(2,2-Difluoroethyl)-6-(4-((6-(trifluoromethyl)pyridin-2-yl)oxy)piperidin-1-yl)-1H-pyrazolo[3,4-b]pyrazine], the EC50 fell in the range of 10 to 50 µM.

`O=C(c1ccc2cc[nH]c2c1)N1CCC(Oc2cnccc2C(F)(F)F)CC1` [Compound 310, (1H-Indol-6-yl)(4-((4-(trifluoromethyl)pyridin-3-yl)oxy)piperidin-1-yl)methanone] gave an EC50 of 10 to 50 µM. Compound `FC(F)Cn1ncc2ncc(N3CCC(COc4ncccc4C(F)(F)F)CC3)nc21` [Compound 313, 1-(2,2-Difluoroethyl)-6-(4-(((3-(trifluoromethyl)pyridin-2-yl)oxy)methyl)piperidin-1-yl)-1H-pyrazolo[3,4-b]pyrazine] registered an EC50 of 10 to 50 µM. With `O=C(c1ccc2cc[nH]c2c1)N1CCC(Oc2ccc(C(F)(F)F)nc2)CC1` [Compound 314, (1H-Indol-6-yl)(4-((6-(trifluoromethyl)pyridin-3-yl)oxy)piperidin-1-yl)methanone] the figure was 50 to 100 µM; with `FC(F)Cn1ncc2ncc(N3CCC(COc4ccnc(C(F)(F)F)c4)CC3)nc21` [Compound 315, 1-(2,2-Difluoroethyl)-6-(4-(((2-(trifluoromethyl)pyridin-4-yl)oxy)methyl)piperidin-1-yl)-1H-pyrazolo[3,4-b]pyrazine], less than 10 µM; with `FC(F)Cn1ncc2ncc(N3CCC(COc4ccc(C(F)(F)F)nc4)CC3)nc21` [Compound 316, 1-(2,2-Difluoroethyl)-6-(4-(((6-(trifluoromethyl)pyridin-3-yl)oxy)methyl)piperidin-1-yl)-1H-pyrazolo[3,4-b]pyrazine], less than 10 µM. `FC(F)Cn1ncc2ncc(N3CCC(COc4ccc(C(F)(F)F)cn4)CC3)nc21` [Compound 317, 1-(2,2-Difluoroethyl)-6-(4-(((5-(trifluoromethyl)pyridin-2-yl)oxy)methyl)piperidin-1-yl)-1H-pyrazolo[3,4-b]pyrazine] yielded a 50% effective concentration (EC50) of 10 to 50 µM. Compound `O=C(c1ccc2cc[nH]c2c1)N1CCC(Oc2ccncc2C(F)(F)F)CC1` [Compound 318, (1H-Indol-6-yl)(4-((3-(trifluoromethyl)pyridin-4-yl)oxy)piperidin-1-yl)methanone] displayed an EC50 of 10 to 50 µM. Next, `O=C(c1ccc2cc[nH]c2c1)N1CCC(Oc2ccnc(C(F)(F)F)c2)CC1` [Compound 319, (1H-Indol-6-yl)(4-((2-(trifluoromethyl)pyridin-4-yl)oxy)piperidin-1-yl)methanone]: 10 to 50 µM; `O=C(c1ccc2cc[nH]c2c1)N1CCC(Oc2ncccc2C(F)(F)F)CC1` [Compound 321, (1H-Indol-6-yl)(4-((3-(trifluoromethyl)pyridin-2-yl)oxy)piperidin-1-yl)methanone]: 10 to 50 µM. Next, `O=C(c1ccc2cc[nH]c2c1)N1CCC(Oc2cc(C(F)(F)F)ccn2)CC1` [Compound 322, (1H-Indol-6-yl)(4-((4-(trifluoromethyl)pyridin-2-yl)oxy)piperidin-1-yl)methanone]: 50 to 100 µM; `FC(F)Cn1ncc2ncc(N3CCC(COc4cccnc4C(F)(F)F)CC3)nc21` [Compound 323, 3-({1-[1-(2,2-Difluoroethyl)-1H-pyrazolo[3,4-b]pyrazin-6-yl]piperidin-4-yl}methoxy)-2-(trifluoromethyl)pyridine]: less than 10 µM; `FC(F)Cn1ncc2ncc(N3CCC(COc4cc(C(F)(F)F)ccn4)CC3)nc21` [Compound 324, 2-({1-[1-(2,2-Difluoroethyl)-1H-pyrazolo[3,4-b]pyrazin-6-yl]piperidin-4-yl}methoxy)-4-(trifluoromethyl)pyridine]: 10 to 50 µM. The compound `FC(F)Cn1ncc2ncc(N3CCC(Oc4cc(C(F)(F)F)ccn4)CC3)nc21` [Compound 326, 1-(2,2-Difluoroethyl)-6-(4-((4-(trifluoromethyl)pyridin-2-yl)oxy)piperidin-1-yl)-1H-pyrazolo[3,4-b]pyrazine] gave an EC50 of 10 to 50 µM.

Compound `O=C(c1ccc2cc[nH]c2c1)N1CCC(Oc2cccc(C(F)(F)F)n2)CC1` [Compound 327, (1H-Indol-6-yl)(4-((6-(trifluoromethyl)pyridin-2-yl)oxy)piperidin-1-yl)methanone] yielded an EC50 of 10 to 50 µM.

Consider `FC(F)Cn1ncc2ncc(N3CCC(COc4cccc(C(F)(F)F)n4)CC3)nc21` [Compound 328, 2-({1-[1-(2,2-Difluoroethyl)-1H-pyrazolo[3,4-b]pyrazin-6-yl]piperidin-4-yl}methoxy)-6-(trifluoromethyl)pyridine], for which the concentration giving a half-maximal response (EC50) was in the range of 10 to 50 µM. Next, `FC(F)Cn1ncc2ncc(N3CCC(OC4CN(c5cccnc5C(F)(F)F)C4)CC3)nc21` [Compound 329, 1-(2,2-Difluoroethyl)-6-(4-((1-(2-(trifluoromethyl)pyridin-3-yl)azetidin-3-yl)oxy)piperidin-1-yl)-1H-pyrazolo[3,4-b]pyrazine]: less than 10 µM; `N#Cc1cc(C(F)(F)F)cnc1OC1CCN(C(=O)c2ccc3cc[nH]c3c2)CC1` [Compound 332, 2-((1-(1H-Indole-6-carbonyl)piperidin-4-yl)oxy)-5-(trifluoromethyl)nicotinonitrile]: 10 to 50 µM. Turning to `O=C(c1ccc2cc[nH]c2c1)N1CCC(Oc2ccc(C(F)(F)F)cn2)CC1` [Compound 333, (1H-Indol-6-yl)(4-((5-(trifluoromethyl)pyridin-2-yl)oxy)piperidin-1-yl)methanone], the EC50 was 10 to 50 µM. `O=C(Cc1csc(-c2ccccc2)n1)N1CCC(COCc2ccccc2)CC1` [Compound 335, 1-{4-[(Benzyloxy)methyl]piperidin-1-yl}-2-(2-phenyl-1,3-thiazol-4-yl)ethan-1-one] returned an EC50 of 10 to 50 µM. `O=C(Cc1csc(-c2ccccc2)n1)N1CCC(OCCc2ccccc2)CC1` [Compound 336, 2-(2-Phenyl-1,3-thiazol-4-yl)-1-[4-(2-phenylethoxy)piperidin-1-yl]ethan-1-one] registered a concentration giving a half-maximal response (EC50) of 10 to 50 µM. With `CCC(C)(C)C(=O)N1CCC(COc2cccc(C(F)(F)F)n2)CC1` [Compound 350] the figure was 50 to 100 µM; with `CC(C)(C)CC(=O)N1CCC(COc2cccc(C(F)(F)F)n2)CC1` [Compound 351], 10 to 50 µM. With `Cc1cccnc1OCC1CCN(C(=O)Cc2cn(C)c3ccccc23)CC1` [Compound 359] the figure was 10 to 50 µM; with `Cc1cccnc1OCC1CCN(C(=O)C2(c3ccccc3)CCOCC2)CC1` [Compound 360], 10 to 50 µM; with `CC(C)Sc1ccc(CC(=O)N2CCC(Oc3ncccc3C#N)CC2)cc1` [Compound 369], 10 to 50 µM. `N#Cc1cccnc1OC1CCN(C(=O)C2(c3ccc(Cl)cc3)CCCC2)CC1` [Compound 370] showed an EC50 of less than 10 µM. Next, `N#Cc1cccnc1OC1CCN(C(=O)C23CC4CC(CC(C4)C2)C3)CC1` [Compound 375]: 10 to 50 µM; `O=C(NCCc1ccccc1)N1CCC(Oc2ccc(C(F)(F)F)cn2)CC1` [Compound 379]: greater than 100 µM. `O=C(N1CCC(Oc2ccc(C(F)(F)F)cn2)CC1)C1(c2ccccc2)CCOCC1` [Compound 381] returned a concentration giving a half-maximal response (EC50) of 10 to 50 µM. The compound `CC(C)Sc1ccc(CC(=O)N2CCC(Oc3ccc(C(F)(F)F)cn3)CC2)cc1` [Compound 383] came in with an EC50 of 10 to 50 µM. On to `O=C(CCCc1ccccc1)N1CCC(Oc2ccc(C(F)(F)F)cn2)CC1` [Compound 386], for which the half-maximal effective concentration (EC50) was in the range of 10 to 50 µM. Compound `O=C(C(c1ccccc1)c1ccccc1)N1CCC(Oc2ccc(C(F)(F)F)cn2)CC1` [Compound 387] yielded a half-maximal effective concentration (EC50) of 10 to 50 µM. In turn, `CCOc1ccccc1C(=O)N1CCC(Oc2ccc(C(F)(F)F)cn2)CC1` [Compound 391] registered an EC50 of 10 to 50 µM. Next, `O=C(Cc1csc(-c2ccccc2)n1)N1CCC(Oc2ccnc(C(F)(F)F)c2)CC1` [Compound 399, 2-(2-Phenyl-1,3-thiazol-4-yl)-1-(4-{[2-(trifluoromethyl)pyridin-4-yl]oxy}piperidin-1-yl)ethan-1-one]: 10 to 50 µM; `O=C(Cc1csc(-c2ccccc2)n1)N1CCC(Oc2cccnc2C(F)(F)F)CC1` [Compound 400, 2-(2-Phenyl-1,3-thiazol-4-yl)-1-(4-{[2-(trifluoromethyl)pyridin-3-yl]oxy}piperidin-1-yl)ethan-1-one]: 10 to 50 µM.

Take `O=C(Cc1csc(-c2ccccc2)n1)N1CCC(Oc2ncccc2C(F)(F)F)CC1` [Compound 401, 2-(2-Phenyl-1,3-thiazol-4-yl)-1-(4-{[3-(trifluoromethyl)pyridin-2-yl]oxy}piperidin-1-yl)ethan-1-one]: the EC50 fell in the range of 10 to 50 µM. For `O=C(Cc1csc(-c2ccccc2)n1)N1CCC(Oc2cccc(C(F)(F)F)n2)CC1` [Compound 402, 2-(2-Phenyl-1,3-thiazol-4-yl)-1-(4-{[6-(trifluoromethyl)pyridin-2-yl]oxy}piperidin-1-yl)ethan-1-one], the EC50 fell in the range of 10 to 50 µM.

The compound `O=C(N1CCC(Oc2ccccc2)CC1)C1(c2ccccc2)CCCC1` [Compound 404, 4-Phenoxy-1-(1-phenylcyclopentanecarbonyl)piperidine] registered an EC50 of 10 to 50 µM. In turn, `O=C(c1ccc2c(c1)CCCC2)N1CCC(Oc2ccccc2)CC1` [Compound 407, 4-Phenoxy-1-(5,6,7,8-tetrahydronaphthalene-2-carbonyl)piperidine] gave an EC50 of 10 to 50 µM.
